Source: patent US6900019B1, “In-situ cell extraction and assay method” (Amersham Biosciences UK Limited, priority 1997, dated 2005)
Values joined by “and” are separate entries in the source; they are usually repeats but may differ in a detail not shown here. Identical values can stand only once.

Legend:
[1] = system: rabbit anti-cAMP sera (antigen:antibody binding); experiment: Scintillation proximity radioimmunoassay for cAMP: standard curves with lysis reagents and sequestrants; settings: for [125I]cAMP bound to SPA beads, counts per minute: no sequestrant; for restoration of antigen:antibody binding by different sequestrants: 2.5% (w/v) sequestrant, standards in 1% DTAB
Protocol: All assays were carried out in microtitre plates compatible with a microtitre plate beta scintillation counter. Standards (50 μl; 0.2-12.8 pmol/well), antisera (50 μl; at 1:11000 dilution), tracer (50 ul; 10000-20000 cpm) are added to anti-rabbit coated SPA beads (50 μl; 20 mg/ml). Non-specific binding was determined in the absence of specific rabbit antisera. SPA anti-rabbit reagent is placed onto a magnetic stirrer to ensure a homogeneous suspension before pipetting. All wells contained a total volume of 200 μl. The plates were sealed and incubated at room temperature (15-30° C.) for 15-20 hours. The amount of [^125I]cAMP bound to the SPA fluomicrospheres was determined by counting in a microtitre plate beta scintillation counter for 2 minutes.
Experiments were set up with:— • a) Working standards (4-256 pmol/ml; 0.2-12.8 pmol/well) were prepared in assay buffer (0.05M sodium acetate buffer containing 0.01% sodium azide) only (control) or assay buffer containing lysis reagent (e.g. DTAB, CPC or SDS; see experiment 1) at various concentrations. • b) Rabbit anti-cAMP sera prepared in assay buffer only (control) or assay buffer containing sequestrating agent at various concentrations depending on the experiment. • c) Radioactive tracer: adenosine 3′ 5′-cyclic phosphoric acid 2′-O-succinyl-3-[^125I] iodotyrosine methyl ester prepared in assay buffer only (control) or assay buffer containing sequestrating agent at various concentrations depending on the experiment. • d) Donkey anti-rabbit IgG coupled to scintillation proximity fluomicrospheres prepared in assay buffer only (control) or assay buffer containing sequestrating agent at various concentrations depending on the experiment. Experiment 1: Inhibition of Antigen and Antibody Binding by Several Lysis Reagents Method
In these experiments, standard curves were prepared for cAMP using the SPA immunoassay technique, described above, where working standards of cAMP were prepared in several lysis reagents at 1% (w/v) or 2% (w/v) final concentration. The detergents investigated included dodecyl trimethyl ammonium bromide (DTAB; Sigma Chemical Co. D8638), benzethonium chloride (BZC; Aldrich; B470-8), cetyl pyridinium chloride (CPC; Sigma Chemical Co; C9002), sodium dodecyl sulphate (SDS, Sigma chemical Co; L4509) and N-dodecyl-N,N-dimethyl-3-ammonio-1-propanesulphonate (DDAPS; Sigma Chemical Co.; D4516).
In these experiments, standard curves for cAMP were prepared using the SPA immunoassay technique described above, where working standards of cAMP were prepared in 1% (w/v), 1.5% (w/v) or 2% (w/v) lysis reagents (DTAB, SDS or CPC). The control consisted of no lysis reagent or cyclodextrin added. The effect including 2.5% (w/v) alpha-cyclodextrin (alpha-CD) (Sigma Chemical Co.; C4642) on antigen:antibody binding was investigated. Here, tracer, antisera and SPA beads were prepared in assay buffer containing 2.5% (w/v) alpha-CD. A second control tested the effect of 2.5% (w/v) alpha-CD on the standard curve without addition of lysis reagent.
In this experiment, standard curves for cAMP were prepared using the SPA radioimmunoassay where working standards of cAMP were prepared in 1% (w/v) DTAB. The effect of including 1% (w/v), 2% (w/v), 2.5% (w/v) and 5% (w/v) alpha-cyclodextrin on antigen:antibody binding was investigated. Here, tracer, antisera and SPA beads were prepared in assay buffer containing alpha-CD at the above concentrations. The control consisted of no lysis or cyclodextrin added to the assay.
In this experiment, standard curves for cAMP were prepared using the SPA immunoassay technique where working standards were prepared 1% (wt) lysis reagent (DTAB). The effect of including 2.5% (w/v) alpha-cyclodextrin (CD) 2.5% (w/v) beta-cyclodextrin (beta-CD) (Sigma is Chemical Co.; C4767) and 2.5% (w/v) gamma-cyclodextrin (gamma-CD) (Sigma Chemical Co.; 4892) on antigen:antibody binding was investigated. […]

[2] = system: Chinese hamster ovary (CHO) cells; experiment: "Total" cellular cAMP from forskolin-stimulated CHO cells; assay type: cell-based; settings: 100 μM forskolin, 20 minutes
Protocol: Chinese hamster ovary (CHO) cells were cultured in HAM's media containing 10% (v/v) foetal calf serum (FCS). For cAMP assays, cells were seeded into clear-bottomed 96-well tissue-culture plates with opaque walls (tissue-culture grade; see materials) in HAM's media, (see experiment 5) at 40 μl/well (between 10^4 and 10^6 cells/well). Cells were cultured overnight at 37° C. in a 95% air/5% CO2 atmosphere. The next day, sequestration and lysis buffers (2.5% alpha-cyclodextrin, 1% and 10% DTAB in assay buffer) were prepared. Antisera (at 1/11000 dilution), tracer (10000-20000 cpm) and SPA beads (20 mg/ml) were reconstituted with assay buffer containing 2.5% (w/v) alpha-cyclodextrin. […]
DTAB (100 μl, 1% w/v in assay buffer) was added to the non-specific binding wells. […] Following incubation, the plate was transferred directly to a TopCount™ scintillation counter and radioactivity detected. Non-specific binding was determined in the absence of specific rabbit antisera. Cyclic AMP levels were determined using log/linear analysis with reference to the standard curve. […]
Chinese hamster ovary cells were seeded at a density of 100,000 cells per well and cultured overnight to confluence in Viewplates as described under the methods section. […] The cell culture supernatant was not removed before the cell lysis step. cAMP levels were measured with the SPA radioimmunoassay procedure.

[3] = 1% lysis reagent, 0.2 pmol cAMP/well
[4] = 1% lysis reagent, 0.4 pmol cAMP/well
[5] = 1% lysis reagent, 0.8 pmol cAMP/well
[6] = 1% lysis reagent, 1.6 pmol cAMP/well
[7] = 1% lysis reagent, 3.2 pmol cAMP/well
[8] = 1% lysis reagent, 6.4 pmol cAMP/well
[9] = 1% lysis reagent, 12.8 pmol cAMP/well
[10] = 1% lysis reagent, NSB (no specific antisera)
[11] = 1% lysis reagent, Zero standard
[12] = 2% lysis reagent, 0.2 pmol cAMP/well
[13] = 2% lysis reagent, 0.4 pmol cAMP/well
[14] = 2% lysis reagent, 0.8 pmol cAMP/well
[15] = 2% lysis reagent, 1.6 pmol cAMP/well
[16] = 2% lysis reagent, 3.2 pmol cAMP/well
[17] = 2% lysis reagent, 6.4 pmol cAMP/well
[18] = 2% lysis reagent, 12.8 pmol cAMP/well
[19] = 2% lysis reagent, NSB (no specific antisera)
[20] = 2% lysis reagent, Zero standard

Compound: CC(C)(C)CC(C)(C)c1ccc(OCCOCC[N+](C)(C)Cc2ccccc2)cc1 [BZC, benzethonium chloride]
- [125I]cAMP bound to SPA beads, counts per minute [1, 3]: 644 cpm
- [125I]cAMP bound to SPA beads, counts per minute [1, 4]: 501 cpm
- [125I]cAMP bound to SPA beads, counts per minute [1, 5]: 473 cpm
- [125I]cAMP bound to SPA beads, counts per minute [1, 6]: 426 cpm
- [125I]cAMP bound to SPA beads, counts per minute [1, 7]: 261 cpm
- [125I]cAMP bound to SPA beads, counts per minute [1, 8]: 16 cpm
- [125I]cAMP bound to SPA beads, counts per minute [1, 9]: 6 cpm
- [125I]cAMP bound to SPA beads, counts per minute [1, 10]: 111 cpm
- [125I]cAMP bound to SPA beads, counts per minute [1, 11]: 951 cpm
- [125I]cAMP bound to SPA beads, counts per minute [1, 12]: 308 cpm
- [125I]cAMP bound to SPA beads, counts per minute [1, 13]: 338 cpm
- [125I]cAMP bound to SPA beads, counts per minute [1, 14]: 222 cpm
- [125I]cAMP bound to SPA beads, counts per minute [1, 15]: 156 cpm
- [125I]cAMP bound to SPA beads, counts per minute [1, 16]: 143 cpm
- [125I]cAMP bound to SPA beads, counts per minute [1, 17]: 96 cpm
- [125I]cAMP bound to SPA beads, counts per minute [1, 18]: 70 cpm
- [125I]cAMP bound to SPA beads, counts per minute [1, 19]: 117 cpm
- [125I]cAMP bound to SPA beads, counts per minute [1, 20]: 486 cpm

Compound: CCCCCCCCCCCC[N+](C)(C)CCCS(=O)(=O)[O-] [DDAPS, N-dodecyl-N,N-dimethyl-3-ammonio-1-propanesulphonate]
- [125I]cAMP bound to SPA beads, counts per minute [1, 3]: 969 cpm and 762 cpm
- [125I]cAMP bound to SPA beads, counts per minute [1, 4]: 849 cpm and 719 cpm
- [125I]cAMP bound to SPA beads, counts per minute [1, 5]: 725 cpm and 689 cpm
- [125I]cAMP bound to SPA beads, counts per minute [1, 6]: 610 cpm and 559 cpm
- [125I]cAMP bound to SPA beads, counts per minute [1, 7]: 425 cpm and 446 cpm
- [125I]cAMP bound to SPA beads, counts per minute [1, 8]: 311 cpm and 326 cpm
- [125I]cAMP bound to SPA beads, counts per minute [1, 9]: 204 cpm and 173 cpm
- [125I]cAMP bound to SPA beads, counts per minute [1, 10]: 181 cpm and 137 cpm
- [125I]cAMP bound to SPA beads, counts per minute [1, 11]: 1109 cpm and 906 cpm
- [125I]cAMP bound to SPA beads, counts per minute [1, 12]: 416 cpm and 423 cpm
- [125I]cAMP bound to SPA beads, counts per minute [1, 13]: 426 cpm and 370 cpm
- [125I]cAMP bound to SPA beads, counts per minute [1, 14]: 429 cpm and 350 cpm
- [125I]cAMP bound to SPA beads, counts per minute [1, 15]: 339 cpm and 290 cpm
- [125I]cAMP bound to SPA beads, counts per minute [1, 16]: 303 cpm and 252 cpm
- [125I]cAMP bound to SPA beads, counts per minute [1, 17]: 215 cpm and 194 cpm
- [125I]cAMP bound to SPA beads, counts per minute [1, 18]: 109 cpm and 115 cpm
- [125I]cAMP bound to SPA beads, counts per minute [1, 19]: 129 cpm and 130 cpm
- [125I]cAMP bound to SPA beads, counts per minute [1, 20]: 579 cpm and 510 cpm

Compound: CCCCCCCCCCCCOS(=O)(=O)[O-].[Na+] [SDS, sodium dodecyl sulphate]
- [125I]cAMP bound to SPA beads, counts per minute ([1]; 1% lysis reagent, 0.2 pmol cAMP/well, sulphate): 1052 cpm and 1128 cpm
- [125I]cAMP bound to SPA beads, counts per minute ([1]; 1% lysis reagent, 0.4 pmol cAMP/well, sulphate): 973 cpm and 1052 cpm
- [125I]cAMP bound to SPA beads, counts per minute ([1]; 1% lysis reagent, 0.8 pmol cAMP/well, sulphate): 913 cpm and 973 cpm
- [125I]cAMP bound to SPA beads, counts per minute ([1]; 1% lysis reagent, 1.6 pmol cAMP/well, sulphate): 859 cpm and 913 cpm
- [125I]cAMP bound to SPA beads, counts per minute ([1]; 1% lysis reagent, 3.2 pmol cAMP/well, sulphate): 837 cpm and 859 cpm
- [125I]cAMP bound to SPA beads, counts per minute [1, 8]: 640 cpm
- [125I]cAMP bound to SPA beads, counts per minute [1, 9]: 394 cpm
- [125I]cAMP bound to SPA beads, counts per minute [1, 10]: 118 cpm
- [125I]cAMP bound to SPA beads, counts per minute [1, 11]: 1149 cpm

Compound: OC[C@H]1O[C@@H]2O[C@H]3[C@H](O)[C@@H](O)[C@@H](O[C@H]4[C@H](O)[C@@H](O)[C@@H](O[C@H]5[C@H](O)[C@@H](O)[C@@H](O[C@H]6[C@H](O)[C@@H](O)[C@@H](O[C@H]7[C@H](O)[C@@H](O)[C@@H](O[C@H]8[C@H](O)[C@@H](O)[C@@H](O[C@H]1[C@H](O)[C@H]2O)O[C@@H]8CO)O[C@@H]7CO)O[C@@H]6CO)O[C@@H]5CO)O[C@@H]4CO)O[C@@H]3CO [beta-cyclodextrin]
- restoration of antigen:antibody binding by different sequestrants [1]: less effective

Compound: C=C[C@@]1(C)CC(=O)[C@]2(O)[C@@]3(C)[C@@H](O)CCC(C)(C)[C@@H]3[C@H](O)[C@H](OC(C)=O)[C@@]2(C)O1 [forskolin, Forskolin]
- Total cellular cAMP levels [2]: over 170 pmol/10^6 cells

Compound: OC[C@H]1O[C@@H]2O[C@H]3[C@H](O)[C@@H](O)[C@@H](O[C@H]4[C@H](O)[C@@H](O)[C@@H](O[C@H]5[C@H](O)[C@@H](O)[C@@H](O[C@H]6[C@H](O)[C@@H](O)[C@@H](O[C@H]7[C@H](O)[C@@H](O)[C@@H](O[C@H]8[C@H](O)[C@@H](O)[C@@H](O[C@H]9[C@H](O)[C@@H](O)[C@@H](O[C@H]1[C@H](O)[C@H]2O)O[C@@H]9CO)O[C@@H]8CO)O[C@@H]7CO)O[C@@H]6CO)O[C@@H]5CO)O[C@@H]4CO)O[C@@H]3CO [gamma cyclodextrin, gamma-cyclodextrin]
- restoration of antigen:antibody binding by different sequestrants [1]: restored binding to an optimal degree
